# In US20240228446A1, “PREPARATION METHOD FOR BICYCLIC COMPOUND AND APPLICATION AS ANTIFUNGAL AGENT” (priority 2021, published 2024):
# System: Candida albicans ATCC MYA-2876
# Test: Minimal inhibitory concentration (MIC) test on fungal growth (CLSI M27, yeasts)
# Assay type: cell-based
# Settings: Candida albicans; lowest concentration inhibiting growth of yeast by 50%; 35° C., 24 hours; RPMI1640; read-out: MIC Candida albicans ATCC MYA-2876
# Method: • RPMI1640 medium: Brand: Gibco, article number: 31800-014 • Sabouraud dextrose agar (SDA): Brand: Hope Bio, article number: HB0253-81 • Voriconazole: Brand: Adamas, article number: 22105A • Amphotericin B: Brand: AbCam, article number: ab141199
# MIC test was conducted in accordance with the guidelines and requirements of CLSI M27 (for yeasts) and M38 (for Aspergillus).
# Strain preparation: The strains were inoculated 1 day in advance by streaking on SDA plates with glycerol strains stored at −80° C. The strains were cultured at 35° C. and 40 to 60% humidity for 18 to 24 hours. Streak inoculation of Aspergillus fumigatus and Cryptococcus neoformans was required to be done 3 days and 2 days in advance, respectively.
# Preparation of culture medium and compounds: The liquid culture medium RPMI was prepared with pure water, and 0.165 mol/L MOPS was added to adjust the pH to 7.0. The mixture was filtered with a 0.22 μm-membrane filter, sterilized, and stored at 4° C. (no more than 3 months). 0.85% physiological saline was sterilized at 121° C. for 30 min and then stored at room temperature (no more than 1 week). The compounds were dissolved in DMSO to 12.8 mg/mL and stored at −20° C.
# For yeast, 3 to 5 colonies were selected from the SDA plate on the day of testing and fully suspended in 5 mL of sterilized 0.85% physiological saline. The turbidity of the bacterial suspension was measured with a turbidimeter, and the turbidity was adjusted to approximately 0.2. The bacterial suspension was 50-fold and 20-fold (1000-fold in total) diluted in RPMI1640 medium, respectively, to serve as the inoculum. The final inoculum concentration was 500 to 2500 CFU/mL.
# The compound was diluted to the highest 800 μg/mL (or 400 μg/mL) with DMSO, and a 10-step 2-fold gradient dilution was performed, resulting in 11 concentrations. 2 μL of the gradient-diluted compound was transferred to the corresponding wells of a 96-well plate, and then 198 μL of the inoculum was transferred to the test plate. The plate was incubated at 35° C. for 24 hours (Aspergillus fumigatus and Cryptococcus neoformans were incubated for 48 and 72 hours, respectively).
# After the incubation, the growth of the fungi was visually observed. The lowest concentration of the compound that inhibited the growth of yeast by 50% (inhibited Aspergillus by 100%) was defined as the minimum inhibitory concentration (MIC, μg/mL). A magnifying glass or reading at OD530 nm could be used to assist in determining the MIC. Photos were taken of the test plates for record keeping.
row,SMILES,MIC [µg/mL]
1,COc1ccc(C23CC(C(F)(F)[C@@](O)(Cn4cnnn4)c4ccc(F)cc4F)(C2)C3)cc1 (stereo in doubt) [Compound 1B],0.5
2,O[C@](Cn1cncn1)(c1ccc(F)cc1F)C(F)(F)C12CC(c3ccc(OCC(F)(F)F)cc3)(C1)C2 (stereo in doubt) [Compound 2B],0.25
3,N[C@@](Cn1cnnn1)(c1ccc(F)cc1F)C(F)(F)C12CC(c3ccc(OCC(F)(F)F)cc3)(C1)C2 (stereo in doubt) [Compound 4A],0.06
4,O[C@](Cn1cnnn1)(c1ccc(F)cc1F)C(F)(F)C12CC(c3ccc(OCC(F)(F)F)cc3)(C1)C2 [Compound 3B],1
5,OC(Cn1cncn1)(c1ccc(Cl)cc1F)C(F)(F)C12CC(c3ccc(OCC(F)(F)F)cc3)(C1)C2 (stereo not shown) [Compound 5],0.016
6,O[C@](Cn1cnnn1)(c1ccc(F)cc1F)C(F)(F)C12CC(C1)C2 [Compound 6B],2
7,OC(Cn1cnnn1)(c1ccc(F)cc1F)C(F)(F)C12CC(C1)C2 (stereo not shown) [Compound 6],0.13
8,OC(Cn1cnnn1)(c1ccc(Cl)cc1F)C(F)(F)C12CC(c3ccc(OCC(F)(F)F)cc3)(C1)C2 (stereo not shown) [Compound 7],0.016
9,N#Cc1ccc(C23CC(C(F)(F)C(O)(Cn4cnnn4)c4ccc(F)cc4F)(C2)C3)cc1 (stereo not shown) [Compound 8],0.5
10,OC(Cn1cnnn1)(c1cc(F)ccc1F)C(F)(F)C12CC(c3ccc(OCC(F)(F)F)cc3)(C1)C2 (stereo not shown) [Compound 9],0.03
11,OC(Cn1cncn1)(c1ccc(F)cc1F)C(F)(F)C12CC(C1)C2 (stereo not shown) [Compound 10],≤ 0.0039
12,OC(Cn1cnnn1)(c1ccc(F)cc1F)C(F)(F)C12CC(I)(C1)C2 (stereo not shown) [Compound 11],0.03
13,CC12CC(C(F)(F)C(O)(Cn3cnnn3)c3ccc(F)cc3F)(C1)C2 (stereo not shown) [Compound 14],0.03
14,COc1ccc(C23CC(C(C)(F)C(O)(Cn4cnnn4)c4ccc(F)cc4F)(C2)C3)cc1 (stereo not shown) [Compound 17],0.125
15,CC(F)(C12CC(c3ccc(OCC(F)(F)F)cc3)(C1)C2)C(O)(Cn1cnnn1)c1ccc(F)cc1F (stereo not shown) [Compound 18],0.016
16,N#Cc1ccc(COc2ccc(C#CC34CC(C(F)(F)C(O)(Cn5cnnn5)c5ccc(F)cc5F)(C3)C4)cc2)cc1 (stereo not shown) [Compound 19],0.016

row,SMILES,MIC [µg/mL]
1,Oc1ccc(C23CC(C(F)(F)C(O)(Cn4cnnn4)c4ccc(F)cc4F)(C2)C3)cc1 (stereo not shown) [Compound 20],0.13
2,OC(Cn1cnnn1)(c1ccc(F)cc1F)C(F)(F)C12CC(c3ccc(OC(F)(F)F)cc3)(C1)C2 (stereo not shown) [Compound 24],0.03
3,OC(Cn1cnnn1)(c1ccc(F)cc1F)C(F)(F)C12CC(c3ccc(OC(F)F)cc3)(C1)C2 (stereo not shown) [Compound 26],0.016
4,N#Cc1ccc(C23CC(C(F)(F)[C@@](Cn4cncn4)(OP(=O)(O)O)c4ccc(F)cc4F)(C2)C3)cc1 [Compound 27A-P1],2
5,N#Cc1ccc(C23CC(C(F)(F)[C@@](Cn4cncn4)(OCOP(=O)(O)O)c4ccc(F)cc4F)(C2)C3)cc1 [Compound 27A-P2],0.5
6,N#Cc1ccc(C23CC(C(F)(F)C(O)(Cn4cnnn4)c4cc(F)ccc4F)(C2)C3)cc1 (stereo not shown) [Compound 28],0.016
7,N#Cc1cccc(C23CC(C(F)(F)C(O)(Cn4cnnn4)c4ccc(F)cc4F)(C2)C3)c1 (stereo not shown) [Compound 30],0.06
8,OC(Cn1cnnn1)(c1ccc(F)cc1F)C(F)(F)C12CC(c3cccc(OCC(F)(F)F)c3)(C1)C2 (stereo not shown) [Compound 31],0.125
9,OC(Cn1cnnn1)(c1ccc(F)cc1F)C(F)(F)C12CC(c3ccc(Cl)cc3)(C1)C2 (stereo not shown) [Compound 32],0.016
10,OC(Cn1cnnn1)(c1ccc(F)cc1F)C(F)(F)C12CC(c3ccc4c(c3)OCO4)(C1)C2 (stereo not shown) [Compound 33],0.06
11,CNC(=O)COc1ccc(C23CC(C(F)(F)C(O)(Cn4cnnn4)c4ccc(F)cc4F)(C2)C3)cc1 (stereo not shown) [Compound 34],0.016
12,CN1CCC(O)(COc2ccc(C34CC(C(F)(F)C(O)(Cn5cnnn5)c5ccc(F)cc5F)(C3)C4)cc2)CC1 (stereo not shown) [Compound 38],0.5
13,OC1CC(Oc2ccc(C34CC(C(F)(F)C(O)(Cn5cnnn5)c5ccc(F)cc5F)(C3)C4)cc2)C1 (stereo not shown) [Compound 39],0.0078
14,CN1CC[C@@H](Oc2ccc(C34CC(C(F)(F)C(O)(Cn5cnnn5)c5ccc(F)cc5F)(C3)C4)cc2)C1 (stereo partly shown) [Compound 42],0.06
15,CN1CC[C@H](Oc2ccc(C34CC(C(F)(F)C(O)(Cn5cnnn5)c5ccc(F)cc5F)(C3)C4)cc2)C1 (stereo partly shown) [Compound 43],0.03

# Further lines, results first:
row,MIC [µg/mL],SMILES
1,0.016,O[C@H](CNc1ccc(C23CC(C(F)(F)[C@](O)(Cn4cnnn4)c4ccc(F)cc4F)(C2)C3)cn1)C(F)(F)F (relative stereo) [Compound 99A]
2,0.03,O[C@@H](CNc1ccc(C23CC(C(F)(F)[C@](O)(Cn4cnnn4)c4ccc(F)cc4F)(C2)C3)cn1)C(F)(F)F (relative stereo) [Compound 99B]
3,0.016,O[C@H](COc1ccc(C23CC(C(F)(F)[C@](O)(Cn4cnnn4)c4cc(F)ccc4F)(C2)C3)cc1)C(F)(F)F (relative stereo) [Compound 165A]
4,1,"O[C@](Cn1cncn1)(c1ccc(F)cc1F)C(F)(F)C12CC(C1)C2 (single isomer, unassigned) [Compound 10B]"
5,0.0078,"C[C@@](F)(C12CC(c3ccc(OCC(F)(F)F)cc3)(C1)C2)[C@](O)(Cn1cnnn1)c1ccc(F)cc1F (single isomer, unassigned) [Compound 18A]"
6,0.125,"CNC(=O)COc1ccc(C23CC(C(F)(F)[C@@](O)(Cn4cncn4)c4ccc(F)cc4F)(C2)C3)cc1 (single isomer, unassigned) [Compound 35B]"
7,≤ 0.0039,N#Cc1ccc(C23CC(C[C@](O)(Cn4cncn4)c4ccc(F)cc4F)(C2)C3)cc1 (stereo in doubt) [Compound 91A]
8,0.016,O[C@@](Cn1cnnn1)(c1ccc(F)cc1F)C(F)(F)C12CC(c3cnc(OCC(F)(F)F)cn3)(C1)C2 (stereo in doubt) [Compound 107A]
9,0.016,O[C@@](Cn1ncnn1)(c1ccc(F)cc1F)C(F)(F)C12CC(c3cnc(OCC(F)(F)F)nc3)(C1)C2 (stereo in doubt) [Compound 110A]
10,0.016,OC1(COc2ccc(C34CC(C(F)(F)[C@](O)(Cn5cnnn5)c5ccc(F)cc5F)(C3)C4)cc2)COC1 (stereo in doubt) [Compound 150A]
11,2,C[C@](F)(C12CC(c3ccc(OCC(F)(F)F)cc3)(C1)C2)[C@@](O)(Cn1cnnn1)c1ccc(F)cc1F [Compound 18B]
12,1,Oc1ccc(C23CC(C(F)(F)[C@@](O)(Cn4cncn4)c4ccc(F)cc4F)(C2)C3)cc1 [Compound 21B]
13,0.06,N#Cc1ccc(C23CC(C(F)(F)[C@@](O)(Cn4cncn4)c4ccc(F)cc4F)(C2)C3)cc1 [Compound 27B]
14,0.25,N#Cc1ccc(C23CC(C(F)(F)[C@](O)(Cn4cnnn4)c4cc(F)ccc4F)(C2)C3)cc1 [Compound 28A]
15,0.125,N#Cc1ccc(C23CC(C(F)(F)[C@@](O)(Cn4cncn4)c4cc(F)ccc4F)(C2)C3)cc1 [Compound 29B]
16,0.06,O[C@](Cn1cnnn1)(c1ccc(F)cc1F)C(F)(F)C12CC(c3ccc(Cl)cc3)(C1)C2 [Compound 32B]

# Same assay, conditions: lowest concentration inhibiting growth of yeast by 50%; 35° C., 24 hours; RPMI1640
row,SMILES,MIC Candida albicans ATCC MYA-2876 [µg/mL]
1,"Oc1ccc(C23CC(C(F)(F)[C@](O)(Cn4cnnn4)c4ccc(F)cc4F)(C2)C3)cc1 (single isomer, unassigned) [Compound 20A]",0.06
2,O[C@@](Cn1cnnn1)(c1ccc(F)cc1F)C(F)(F)C12CC(C1)C2 [Compound 6A],0.06
3,O[C@@](Cn1cnnn1)(c1ccc(Cl)cc1F)C(F)(F)C12CC(c3ccc(OCC(F)(F)F)cc3)(C1)C2 [Compound 7A],0.0078
4,N#Cc1ccc(C23CC(C(F)(F)[C@@](O)(Cn4cnnn4)c4ccc(F)cc4F)(C2)C3)cc1 [Compound 8A],0.0078

# Continued, values first:
row,MIC Candida albicans ATCC MYA-2876 [µg/mL],SMILES
1,0.06,O[C@](Cn1cnnn1)(c1cc(F)ccc1F)C(F)(F)C12CC(c3ccc(OCC(F)(F)F)cc3)(C1)C2 [Compound 9A]
2,0.016,CC12CC(C(F)(F)[C@](O)(Cn3cnnn3)c3ccc(F)cc3F)(C1)C2 [Compound 14A]
3,≤0.0039,O[C@@](Cn1cnnn1)(c1ccc(F)cc1F)C(F)(F)C12CC(c3ccc(Cl)cc3)(C1)C2 [Compound 32A]
4,0.0078,CNC(=O)COc1ccc(C23CC(C(F)(F)[C@](O)(Cn4cnnn4)c4ccc(F)cc4F)(C2)C3)cc1 [Compound 34A]
